Patent US11964974B1, “Imidazo[1,2-c]pyrido[3,4-e]pyrimidine-3-carboxylic acids as CK2 inhibitors” (KING FAISAL UNIVERSITY, priority 2024, dated 2024)

Legend:
[1] = test system: MDA-MB-231 (breast); experiment: In vitro cytotoxic activity assay (MTT), MDA-MB-231; assay type: cell-based; conditions: Homo sapiens; MDA-MB-231 (breast) cells, exposed for 96 hours; read-out: Cytotoxicity activity IC50
Description: (§1) Compounds 1-16 were screened for their in vitro cytotoxic activity utilizing a 3-(4,5-dimethyl-thiazol-2-yl)-2,5-diphenyltetrazolium bromide (MTT) assay against selected cancer human cell lines consisting of PC3 (prostate), HCT116 (colon), A375 (melanoma), H1299 (lung), MIAPaCa-2 (pancreas), HL60 (leukemia), MCF7 (breast), MDA-MB-231 (breast) (T. Mosmann, J. Immunol. Meth., 1983, 65, 55-63). The cells were cultured at 37° C. in RMPI1640 medium supplemented with 10% fetal bovine serum, 50 IU/mL penicillin, and 50 μg/mL streptomycin in a 5% CO2 incubator. All cells were sub-cultured 3 times/week by trypsinisation. Viable cells were seeded and allowed to adhere for 12 hours before a test drug was added in 96-well plates at an initial density of 1.0×10^5 cells/mL. Tumor cell lines were separately exposed to various concentrations of the tested compounds followed by incubation at a temperature of 37° C. during 96 hours inside a medium of fresh RMPI 1640. Cells were subsequently incubated at 37° C. using MTT at 0.5 mg/mL during 4 hours. After removal of supernatant, formazan crystals were dissolved in isopropanol and the optical density was measured at 570 nm. CX-4945 was used as a positive control.

[2] = target: T1, recombinant human CK2 (RRββ-holoenzyme) (Homo sapiens, UniProt P68400); experiment: CK2 Kinase Assay (radiometric, [γ-33P]ATP); assay type: biochemical; conditions: final ATP concentration 15 μM, 10 min at 30° C.; read-out: protein kinase CK2 inhibition IC50
T1 construct: purchased Millipore
Description: CK2 Kinase Assay was conducted using the protocol as described in Pierre F. et al; J. Med. Chem. 2011, 54, 635-654. The tested compounds in aqueous solution were added at a volume of 10 μL to a reaction mixture comprising 10 μL of assay dilution buffer (ADB; 20 mM MOPS, pH 7.2, 25 mM β-glycerol phosphate, 5 mM EGTA, 1 mM sodium orthovanadate, and 1 mM dithiothreitol), 10 μL of substrate peptide (RRRDDDSDDD, dissolved in ADB at a concentration of 1 mM), 10 μL of recombinant human CK2 (RRββ-holoenzyme, 25 ng dissolved in ADB; Millipore). Reactions were initiated by the addition of 10 μL of ATP solution (90% 75 mMMgCl2, 75 μM ATP (final ATP concentration: 15 μM) dissolved in ADB; 10% [γ-33P] ATP (stock 1 mCi/100 μL; 3000 Ci/mmol (Perkin-Elmer) and maintained for 10 min at 30° C. The reactions were quenched with 100 μL of 0.75% phosphoric acid and then transferred to and filtered through a phosphor cellulose filter plate (Millipore). After washing each well five times with 0.75% phosphoric acid, the plate was dried under vacuum for 5 min and, following the addition of 15 μL of scintillation fluid to each well, the residual radioactivity was measured using a Wallac luminescence counter. The IC50 values were derived from eight concentrations of test inhibitors.

[3] = test system: HL60 (leukemia); experiment: In vitro cytotoxic activity assay (MTT), HL60; assay type: cell-based; conditions: Homo sapiens, HL-60; HL60 (leukemia) cells, exposed for 96 hours; read-out: Cytotoxicity activity IC50
Description: as §1

[4] = test system: MCF7 (breast); experiment: In vitro cytotoxic activity assay (MTT), MCF7; assay type: cell-based; conditions: Homo sapiens; MCF7 (breast) cells, exposed for 96 hours; read-out: Cytotoxicity activity IC50
Description: as §1

[5] = test system: MIAPaCa-2 (pancreas); experiment: In vitro cytotoxic activity assay (MTT), MIAPaCa-2; assay type: cell-based; conditions: Homo sapiens, MIA PaCa-2; MIAPaCa-2 (pancreas) cells, exposed for 96 hours; read-out: Cytotoxicity activity IC50
Description: as §1

[6] = test system: PC3 (prostate); experiment: In vitro cytotoxic activity assay (MTT), PC3; assay type: cell-based; conditions: Homo sapiens, Prostate cell; PC3 (prostate) cells, exposed for 96 hours; read-out: Cytotoxicity activity IC50
Description: as §1

[7] = test system: A375 (melanoma); experiment: In vitro cytotoxic activity assay (MTT), A375; assay type: cell-based; conditions: Homo sapiens, A-375; A375 (melanoma) cells, exposed for 96 hours; read-out: Cytotoxicity activity IC50
Description: as §1

[8] = test system: HCT116 (colon); experiment: In vitro cytotoxic activity assay (MTT), HCT116; assay type: cell-based; conditions: Homo sapiens, HCT-116; HCT116 (colon) cells, exposed for 96 hours; read-out: Cytotoxicity activity IC50
Description: as §1

[9] = test system: H1299 (lung); experiment: In vitro cytotoxic activity assay (MTT), H1299; assay type: cell-based; conditions: Homo sapiens, NCI-H1299; H1299 (lung) cells, exposed for 96 hours; read-out: Cytotoxicity activity IC50
Description: as §1

T1 sequence (P68400 whole entry): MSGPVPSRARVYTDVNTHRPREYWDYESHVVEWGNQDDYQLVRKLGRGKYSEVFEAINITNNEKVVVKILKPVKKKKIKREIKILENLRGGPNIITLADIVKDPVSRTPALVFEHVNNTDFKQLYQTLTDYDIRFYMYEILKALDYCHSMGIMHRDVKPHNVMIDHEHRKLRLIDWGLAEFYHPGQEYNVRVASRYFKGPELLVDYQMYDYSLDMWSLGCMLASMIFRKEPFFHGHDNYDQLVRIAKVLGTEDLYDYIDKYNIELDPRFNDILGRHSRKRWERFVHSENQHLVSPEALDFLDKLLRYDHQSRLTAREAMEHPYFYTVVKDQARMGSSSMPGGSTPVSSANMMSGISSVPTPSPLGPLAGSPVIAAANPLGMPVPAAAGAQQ
T1 sequence (P67870 whole entry partner): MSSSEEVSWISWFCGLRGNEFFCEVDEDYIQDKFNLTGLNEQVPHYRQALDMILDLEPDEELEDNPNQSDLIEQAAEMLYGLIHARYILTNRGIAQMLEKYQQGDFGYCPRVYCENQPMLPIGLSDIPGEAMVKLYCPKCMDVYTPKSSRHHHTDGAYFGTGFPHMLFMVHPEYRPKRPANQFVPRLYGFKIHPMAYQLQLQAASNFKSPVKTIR

Q: `O=C(O)c1cnc2c3cnccc3nc(Nc3cccc(Cl)c3)n12` [Compound 1, 5-((3-chlorophenyl)amino)imidazo[1,2-c]pyrido[3,4-e]pyrimidine-3-carboxylic acid] was tested. Which IC50 [1] did it give?
A: 4.9 µM

Q: And the IC50 [2]?
A: 0.035 µM

Q: What about the IC50 [3] of the same compound?
A: 6.7 µM

Q: What about the IC50 [4] of the same compound?
A: 5.3 µM

Q: What about the IC50 [5] of the same compound?
A: 1.6 µM

Q: And the IC50 [6]?
A: 1.8 µM

Q: And the IC50 [7]?
A: 5.6 µM

Q: And the IC50 [8]?
A: 3.2 µM

Q: What about the IC50 [9] of the same compound?
A: 2.9 µM
